These results are taken from US20190127366A1 (LifeSci Pharmaceuticals, Inc., priority 2015, published 2019).

T1 sequence (P00746 26-253): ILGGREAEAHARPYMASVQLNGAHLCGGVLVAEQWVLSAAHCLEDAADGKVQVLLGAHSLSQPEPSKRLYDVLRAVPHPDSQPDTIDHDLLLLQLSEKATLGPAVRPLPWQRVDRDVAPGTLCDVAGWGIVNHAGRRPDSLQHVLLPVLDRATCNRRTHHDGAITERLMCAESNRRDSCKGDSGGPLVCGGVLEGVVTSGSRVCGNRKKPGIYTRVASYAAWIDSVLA

The assay has as its target T1, human complement factor D (Homo sapiens, UniProt P00746).
T1 construct: purchased R&D Systems 1824-SE
As to the kind of experiment: In vitro enzyme inhibition (Z-Lys-SBzl/DTNB absorbance assay). In kind it is biochemical. The conditions noted are these: Complement Factor D (R&D Systems), substrate Z-Lys-SBzl, A405 nm; read-out: CFD IC50. On the procedure:
The ability of the compounds disclosed herein to inhibit human complement factor D inhibitory activity was quantified according to the 12-step protocol provided below. • 1. Prepare assay buffer: 50 mM Tris/HCl, pH 7.5, 1 M NaCl. • 2. Dilute 10 mM Complement Factor D inhibitor Nafamostat Mesilate (Selleckchem, Catalog #S1386) solution from 10000 μM to 9.77 μM in 100% DMSO, 8 concentrations. Then dilute the serial concentrations of Nafamostat Mesilate 20-fold in assay buffer. • 3. Add 10 μl diluted Nafamostat Mesilate duplicated into each of the inhibitor control well of a 96-well plate (Corning, Catalog #3599). Final concentrations were 50 μM, 25 μM, 12.5 μM, 6.25 μM, 3.125 μM, 0.781 μM, 0.195 μM and 0.049 μM. 0.5% DMSO was in each well finally. • 4. Dilute 20 mM test compounds from 10000 μM to […] in 100% DMSO, 6-fold dilution, 8 concentrations. Then dilute the serial concentrations of test compounds 20-fold in assay buffer. • 5. Add 10 μl diluted test compounds duplicated into the 96-well plate. Final concentrations were 50 μM, 8.33 μM, 1.39 μM, 0.23 μM, 0.0386 μM, 0.0064 μM, 0.0011 μM and 0.0002 μM. 0.5% DMSO was in each well finally. • 6. Dilute 20 mM substrate Z-Lys-SBzl (Bachem, Cat #M-1300) to 200 μM in assay buffer with 200 μM DTNB(Sigma, Catalog #D8130). • 7. Dilute 738 ng/μL Complement Factor D (R&D Systems, Catalog #1824-SE) to 6.25 ng/μL in assay buffer. Add 40 μl diluted Complement Factor D in the 96-well plate. • 8. Positive control well contains Complement Factor D without test compound. Negative control well contains neither Complement Factor D nor test compound. Using assay buffer, bring the total volume of all controls to 50 μl. • 9. Pre-incubate the plate for 5 min at room temperature. • 10. Add 50 μl of diluted substrate/DTNB mixture into each well. Mix the reagents completely by shaking the plate gently for 30 sec. • 11. For kinetic reading: Immediately start measuring absorbance (A405 nm) continuously and record data every 30sec for 60 min. • 12. Data analysis • Inhibition activity of compound was evaluated by IC50. IC50 was calculated according the dose-response curve of compound fitted using GraphPadPrism with “log(inhibitor)-response (variable slope)” equation. • % inhibition was calculated by using following equation:
[formula] • Mean(NC): The average value of the negative control wells' A405 nm values. • Mean(PC): The average value of the positive control wells' A405 nm values.
The ability of the compounds in Table 2 to inhibit human complement factor D inhibitory activity was determined.
For orientation: IC50 means the midpoint of a concentration-inhibition curve. As to `CCOC(=O)[C@@H]1C[C@@H](C(=O)NCc2cccc(Cl)c2F)N1C(=O)Cn1nc(C(N)=O)c2ccccc21` (relative stereo) [Example 194, trans-ethyl 1-(2-(3-carbamoyl-1H-indazol-1-yl)acetyl)-4-((3-chloro-2-fluorobenzyl)carbamoyl)azetidine-2-carboxylate], the IC50 is 0.1 to 1 µM.
The value for `NC(=O)c1nn(CC(=O)N2[C@H](C(=O)O)C[C@H]2C(=O)NCc2cccc(Cl)c2F)c2ccccc12` (relative stereo) [Example 195, trans-1-(2-(3-carbamoyl-1H-indazol-1-yl)acetyl)-4-((3-chloro-2-fluorobenzyl)carbamoyl)azetidine-2-carboxylic acid] was 1 to 10 µM; that for `NC(=O)c1nn(CC(=O)N2[C@H](C(N)=O)C[C@H]2C(=O)NCc2cccc(Cl)c2F)c2ccccc12` (relative stereo) [Example 196, trans-1-(2-(3-carbamoyl-1H-indazol-1-yl)acetyl)-N2-(3-chloro-2-fluorobenzyl)azetidine-2,4-dicarboxamide] was 1 to 10 µM.
Then `NC(=O)c1nn(CC(=O)N2[C@@H]3CC[C@@H](C3)[C@H]2C(=O)Nc2cccc(Cl)n2)c2cnccc12` [Example 2, 1-(2-((1R,3S,4S)-3-((6-chloropyridin-2-yl)carbamoyl)-2-azabicyclo[2.2.1]heptan-2-yl)-2-oxoethyl)-1H-pyrazolo[3,4-c]pyridine-3-carboxamide], with 0.1 to 1 µM; and `NC(=O)c1nn(CC(=O)N2[C@@H]3CC[C@@H](C3)[C@H]2C(=O)Nc2cccc(C3CC3)n2)c2ccccc12` [Example 3, 1-(2-((1R,3S,4S)-3-((6-cyclopropylpyridin-2-yl)carbamoyl)-2-azabicyclo[2.2.1]heptan-2-yl)-2-oxoethyl)-1H-indazole-3-carboxamide], with 1 to 10 µM; and `NC(=O)c1nn(CC(=O)N2[C@@H]3CC[C@@H](C3)[C@H]2C(=O)Nc2cccc(C3CC3)n2)c2cnccc12` [Example 4, 1-(2-((1R,3S,4S)-3-((6-cyclopropylpyridin-2-yl)carbamoyl)-2-azabicyclo[2.2.1]heptan-2-yl)-2-oxoethyl)-1H-pyrazolo[3,4-c]pyridine-3-carboxamide], with 1 to 10 µM.
Then `NC(=O)c1nn(CC(=O)N2[C@@H]3CC[C@@H](C3)[C@H]2C(=O)Nc2cccc(C3CC3)n2)c2cc(C3CC3)ccc12` [Example 5, 6-cyclopropyl-1-(2-((1R,3S,4S)-3-((6-cyclopropylpyridin-2-yl)carbamoyl)-2-azabicyclo[2.2.1]heptan-2-yl)-2-oxoethyl)-1H-indazole-3-carboxamide], with 1 to 10 µM; and `Cc1cccc(NC(=O)[C@@H]2[C@H]3CC[C@H](C3)N2C(=O)Cn2nc(C(N)=O)c3ccccc32)n1` [Example 6, 1-(2-((1R,3S,4S)-3-((6-methylpyridin-2-yl)carbamoyl)-2-azabicyclo[2.2.1]heptan-2-yl)-2-oxoethyl)-1H-indazole-3-carboxamide], with 1 to 10 µM.
`Cc1cccc(NC(=O)[C@@H]2[C@H]3CC[C@H](C3)N2C(=O)Cn2nc(C(N)=O)c3ccncc32)n1` [Example 7, 1-(2-((1R,3S,4S)-3-((6-methylpyridin-2-yl)carbamoyl)-2-azabicyclo[2.2.1]heptan-2-yl)-2-oxoethyl)-1H-pyrazolo[3,4-c]pyridine-3-carboxamide]: the IC50 lay within 1 to 10 µM.
Then `NC(=O)c1nn(CC(=O)N2[C@@H]3CC[C@@H](C3)[C@H]2C(=O)Nc2cccc(C(F)(F)F)n2)c2ccccc12` [Example 8, 1-(2-oxo-2-((1R,3S,4S)-3-((6-(trifluoromethyl)pyridin-2-yl)carbamoyl)-2-azabicyclo[2.2.1]heptan-2-yl)ethyl)-1H-indazole-3-carboxamide], with 1 to 10 µM.
Then `NC(=O)c1nn(CC(=O)N2[C@@H]3CC[C@@H](C3)[C@H]2C(=O)Nc2cccc(C(F)(F)F)n2)c2cnccc12` [Example 9, 1-(2-oxo-2-((1R,3S,4S)-3-((6-(trifluoromethyl)pyridin-2-yl)carbamoyl)-2-azabicyclo[2.2.1]heptan-2-yl)ethyl)-1H-pyrazolo[3,4-c]pyridine-3-carboxamide], with 0.1 to 1 µM; and `NC(=O)c1nn(CC(=O)N2[C@@H]3CCC(C3)[C@H]2C(=O)Nc2cccc(Cl)n2)c2ccc(Cl)cc12` [Example 12, 5-chloro-1-(2-((1R,3S)-3-((6-chloropyridin-2-yl)carbamoyl)-2-azabicyclo[2.2.1]heptan-2-yl)-2-oxoethyl)-1H-indazole-3-carboxamide], with 1 to 10 µM; and `NC(=O)c1nn(CC(=O)N2C3CCC(C3)[C@H]2C(=O)Nc2cccc(C(F)(F)F)n2)c2ccccc12` (stereo partly drawn) [Example 13, 1-(2-oxo-2-((3S)-3-((6-(trifluoromethyl)pyridin-2-yl)carbamoyl)-2-azabicyclo[2.2.1]heptan-2-yl)ethyl)-1H-indazole-3-carboxamide], with 1 to 10 µM.
The value for `NC(=O)c1nn(CC(=O)N2C3CCC(C3)[C@H]2C(=O)Nc2cccc(C(F)(F)F)n2)c2ccc(C3CC3)cc12` (stereo partly drawn) [Example 14, 5-cyclopropyl-1-(2-oxo-2-((3S)-3-((6-(trifluoromethyl)pyridin-2-yl)carbamoyl)-2-azabicyclo[2.2.1]heptan-2-yl)ethyl)-1H-indazole-3-carboxamide] was 1 to 10 µM.
On to `NC(=O)c1nn(CC(=O)N2[C@H]3CC[C@H](C3)[C@H]2C(=O)Nc2cccc(Cl)n2)c2ccc(Cl)cc12` [Example 16, 5-chloro-1-(2-((1S,3S,4R)-3-((6-chloropyridin-2-yl)carbamoyl)-2-azabicyclo[2.2.1]heptan-2-yl)-2-oxoethyl)-1H-indazole-3-carboxamide], for which the IC50 lay in the range of 1 to 10 µM.
Take `NC(=O)c1nn(CC(=O)N2[C@H]3CC[C@H](C3)[C@@H]2C(=O)Nc2cccc(C(F)(F)F)n2)c2ccccc12` [Example 17, 1-(2-oxo-2-((1S,3R,4R)-3-((6-(trifluoromethyl)pyridin-2-yl)carbamoyl)-2-azabicyclo[2.2.1]heptan-2-yl)ethyl)-1H-indazole-3-carboxamide]: the IC50 fell in the range of 1 to 10 µM.
Then `NC(=O)c1nn(CC(=O)N2[C@H]3CC[C@H](C3)[C@@H]2C(=O)Nc2cccc(Cl)n2)c2ccccc12` [Example 19, 1-(2-((1S,3R,4R)-3-((6-chloropyridin-2-yl)carbamoyl)-2-azabicyclo[2.2.1]heptan-2-yl)-2-oxoethyl)-1H-indazole-3-carboxamide], with 0.1 to 1 µM; and `NC(=O)c1nn(CC(=O)N2CCCC[C@H]2C(=O)Nc2cccc(Br)n2)c2ccccc12` [Example 20, (S)-1-(2-(2-((6-bromopyridin-2-yl)carbamoyl)piperidin-1-yl)-2-oxoethyl)-1H-indazole-3-carboxamide], with 0.1 to 1 µM; and `NC(=O)c1nn(CC(=O)N2CCOC[C@H]2C(=O)Nc2cccc(Cl)n2)c2ccccc12` [Example 22, (S)-4-(2-(3-carbamoyl-1H-indazol-1-yl)acetyl)-N-(6-chloropyridin-2-yl)morpholine-3-carboxamide], with 1 to 10 µM.
As for `NC(=O)c1nn(CC(=O)N2CCOC[C@H]2C(=O)Nc2cccc(C(F)(F)F)n2)c2ccccc12` [Example 23, (S)-4-(2-(3-carbamoyl-1H-indazol-1-yl)acetyl)-N-(6-(trifluoromethyl)pyridin-2-yl)morpholine-3-carboxamide], the IC50 lay within 1 to 10 µM.
Then `NC(=O)c1nn(CC(=O)N2CCOC[C@H]2C(=O)Nc2cccc(Br)n2)c2ccccc12` [Example 24, (S)-N-(6-bromopyridin-2-yl)-4-(2-(3-carbamoyl-1H-indazol-1-yl)acetyl)morpholine-3-carboxamide], with 1 to 10 µM.
The value for `CC(C)(C)OC(=O)N1CCN(C(=O)Cn2nc(C(N)=O)c3ccccc32)[C@H](C(=O)Nc2cccc(Cl)n2)C1` [Example 25, (S)-tert-butyl 4-(2-(3-carbamoyl-1H-indazol-1-yl)acetyl)-3-((6-chloropyridin-2-yl)carbamoyl)piperazine-1-carboxylate] was 1 to 10 µM.
The value for `NC(=O)c1nn(CC(=O)N2CCNC[C@H]2C(=O)Nc2cccc(Cl)n2)c2ccccc12` [Example 26, (S)-1-(2-(2-((6-chloropyridin-2-yl)carbamoyl)piperazin-1-yl)-2-oxoethyl)-1H-indazole-3-carboxamide] was above 10 µM.
